The experiment is filed under the species Rattus norvegicus. Nature of the experiment: animal or person. To be noted: Sprague-Dawley, Abdomen, po, 0.5 h, read-out: Inhibition.

Description: Inhibitory activity against 4% NaCl-induced abdominal constriction in Sprague-Dawley rat after 30 min of 5 mg/kg, po

Regarding `Cc1ccc(-c2cc(C(F)(F)F)nn2-c2ccc(S(N)(=O)=O)cc2)cc1` [CELECOXIB], the inhibition in vivo at 5 mg/kg is 69.3%.

(Values after ChEMBL document CHEMBL1138184, “Synthesis and structure-activity relationship studies of 1,3-diarylprop-2-yn-1-ones: dual inhibitors of cyclooxygenases and lipoxygenases” (J Med Chem, 2006).)
